Measured values as given in ChEMBL document CHEMBL4765304, “Synthesis and anticancer activity of thiourea derivatives bearing a benzodioxole moiety with EGFR inhibitory activity, apoptosis assay and molecular docking study” (Eur J Med Chem, 2020).

Assays:
[1] = test system: HepG2; experiment: Cytotoxicity against human HepG2 cells assessed as reduction in cell viability by SRB assay; assay type: functional, cell-based
[2] = target: Epidermal growth factor receptor (Homo sapiens, UniProt P00533); experiment: Inhibition of EGFR (unknown origin) by FRET assay
Chain of Epidermal growth factor receptor (P00533 whole entry): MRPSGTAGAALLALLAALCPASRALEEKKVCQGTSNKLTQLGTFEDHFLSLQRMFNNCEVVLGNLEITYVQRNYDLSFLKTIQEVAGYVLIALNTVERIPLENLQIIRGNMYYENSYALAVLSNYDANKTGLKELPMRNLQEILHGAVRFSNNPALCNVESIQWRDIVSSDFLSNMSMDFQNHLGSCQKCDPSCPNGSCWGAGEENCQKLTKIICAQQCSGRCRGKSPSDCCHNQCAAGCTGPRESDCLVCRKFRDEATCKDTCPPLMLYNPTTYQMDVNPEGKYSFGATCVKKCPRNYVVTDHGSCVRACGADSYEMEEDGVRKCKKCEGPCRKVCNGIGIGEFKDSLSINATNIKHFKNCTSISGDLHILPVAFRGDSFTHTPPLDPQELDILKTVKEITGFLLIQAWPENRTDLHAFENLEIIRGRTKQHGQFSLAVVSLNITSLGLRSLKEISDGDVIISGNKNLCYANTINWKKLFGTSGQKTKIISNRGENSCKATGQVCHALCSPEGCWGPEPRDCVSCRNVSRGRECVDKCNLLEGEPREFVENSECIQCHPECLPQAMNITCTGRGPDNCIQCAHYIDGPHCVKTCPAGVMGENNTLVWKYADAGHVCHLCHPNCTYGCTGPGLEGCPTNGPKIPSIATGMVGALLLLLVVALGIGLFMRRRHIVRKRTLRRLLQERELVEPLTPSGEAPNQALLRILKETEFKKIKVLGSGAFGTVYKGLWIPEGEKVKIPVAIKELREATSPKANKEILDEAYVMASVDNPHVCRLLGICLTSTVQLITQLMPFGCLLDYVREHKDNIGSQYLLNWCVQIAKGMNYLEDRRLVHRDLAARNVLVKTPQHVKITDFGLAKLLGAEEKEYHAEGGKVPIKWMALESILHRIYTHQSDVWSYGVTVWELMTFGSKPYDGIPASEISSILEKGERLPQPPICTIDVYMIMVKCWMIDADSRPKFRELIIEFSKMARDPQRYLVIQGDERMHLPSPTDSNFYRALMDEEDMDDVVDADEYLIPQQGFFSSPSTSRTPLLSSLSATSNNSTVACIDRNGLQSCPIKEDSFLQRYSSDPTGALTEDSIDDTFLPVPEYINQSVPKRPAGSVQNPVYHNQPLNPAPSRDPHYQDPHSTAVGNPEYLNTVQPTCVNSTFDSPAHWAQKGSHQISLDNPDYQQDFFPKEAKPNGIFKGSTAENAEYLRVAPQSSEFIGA

[3] = test system: WI-38; experiment: Cytotoxicity against human WI-38 cells assessed as reduction in cell viability by SRB assay; assay type: cell-based
[4] = test system: HCT-116; experiment: Cytotoxicity against human HCT-116 cells assessed as reduction in cell viability by SRB assay; assay type: functional, cell-based
[5] = test system: MCF7; experiment: cells; details: Homo sapiens
Description: Cytotoxicity against human MCF7 cells assessed as reduction in cell viability by SRB assay

[6] = test system: HepG2; experiment: Induction of cell cycle arrest in human HepG2 cells assessed as G0/G1 phase accumulation by flow cytometry analysis (reference value: 57.36 %); assay type: functional
[7] = test system: HepG2; experiment: Induction of cell cycle arrest in human HepG2 cells assessed as S phase accumulation by flow cytometry analysis (reference value: 36.22 %); assay type: functional
[8] = test system: HepG2; experiment: Induction of apoptosis in human HepG2 cells at 5 uM incubated for 24 hrs by annexin V-FITC and PI staining based flow cytometry analysis (reference value: 1.86 %); assay type: functional
[9] = test system: HepG2; experiment: Induction of cell cycle arrest in human HepG2 cells assessed as G2/M phase accumulation by flow cytometry analysis (reference value: 6.32 %); assay type: functional
[10] = test system: HepG2; experiment: Induction of apoptosis in human HepG2 cells assessed as late apoptotic cells at 5 uM incubated for 24 hrs by annexin V-FITC and PI staining based flow cytometry analysis (reference value: 0.56 %); assay type: functional
[11] = test system: HepG2; experiment: Induction of apoptosis in human HepG2 cells assessed as Bax level (reference value: 27.35 pg/ml); assay type: functional
[12] = test system: HepG2; experiment: Induction of cell cycle arrest in human HepG2 cells assessed as preG1 phase accumulation by flow cytometry analysis (reference value: 1.86 %); assay type: functional
[13] = test system: HepG2; experiment: Induction of apoptosis in human HepG2 cells assessed as necrotic cells at 5 uM incubated for 24 hrs by annexin V-FITC and PI staining based flow cytometry analysis (reference value: 0.43 %); assay type: functional
[14] = test system: HepG2; experiment: Induction of apoptosis in human HepG2 cells assessed as Bcl2 level (reference value: 6.639 pg/ml); assay type: functional
[15] = test system: HepG2; experiment: Induction of apoptosis in human HepG2 cells assessed as early apoptotic cells at 5 uM incubated for 24 hrs by annexin V-FITC and PI staining based flow cytometry analysis (reference value: 0.87 %); assay type: functional

SMILES | IC50 [2] | IC50 [5] | IC50 [1] | IC50 [3] | IC50 [4] | Activity [6] | Activity [7] | Activity [8] | Activity [9] | Activity [10] | Activity [11] | Activity [12] | Activity [13] | Activity [14] | Activity [15]
O=C(c1ccccc1)c1ccccc1NC(=S)Nc1ccc2c(c1)OCO2 | – | 179 µM | 167 µM | 435 µM | 171 µM | – | – | – | – | – | – | – | – | – | –
O=C1c2ccccc2C(=O)N1NC(=S)Nc1ccc2c(c1)OCO2 | – | 68.9 µM | 59.1 µM | 287 µM | 55.4 µM | – | – | – | – | – | – | – | – | – | –
N=C(N)NS(=O)(=O)c1ccc(NC(=S)Nc2ccc3c(c2)OCO3)cc1 | – | 160 µM | 132 µM | 364 µM | 127 µM | – | – | – | – | – | – | – | – | – | –
Cc1c(NC(=S)Nc2ccc3c(c2)OCO3)c(=O)n(-c2ccccc2)n1C | 0.358 µM | 17 µM | 3.79 µM | 176 µM | 3.16 µM | 29.15% | 30.21% | 20.43% | 40.64% | 10.62% | 215.8 pg/mL | 20.43% | 2.53% | 3.374 pg/mL | 7.28%
O=C(NNC(=S)Nc1ccc2c(c1)OCO2)c1ccncc1 | – | 25.2 µM | 11.6 µM | 184 µM | 5.63 µM | – | – | – | – | – | – | – | – | – | –
O=S(=O)(NNC(=S)Nc1ccc2c(c1)OCO2)c1ccccc1 | – | 17.6 µM | 11.7 µM | 207 µM | 10 µM | – | – | – | – | – | – | – | – | – | –
NS(=O)(=O)c1ccc(NC(=S)Nc2ccc3c(c2)OCO3)cc1 | – | 103 µM | 95.7 µM | 325 µM | 86.3 µM | – | – | – | – | – | – | – | – | – | –

Stronger by IC50 [5], values ahead:

IC50 [2] | IC50 [5] | SMILES | IC50 [1] | IC50 [3] | IC50 [4] | Activity [6] | Activity [7] | Activity [8] | Activity [9] | Activity [10] | Activity [11] | Activity [12] | Activity [13] | Activity [14] | Activity [15]
1.89 µM | 13.4 µM | O=S(=O)(Nc1ccccn1)c1ccc(NC(=S)Nc2ccc3c(c2)OCO3)cc1 | 7.03 µM | 189 µM | 4.78 µM | – | – | – | – | – | – | – | – | – | –
1.62 µM | 11.7 µM | O=S(=O)(Nc1nccs1)c1ccc(NC(=S)Nc2ccc3c(c2)OCO3)cc1 | 2.99 µM | 201 µM | 2.53 µM | – | – | – | – | – | – | – | – | – | –
0.993 µM | 10.8 µM | S=C(NN=C(c1ccccc1)c1ccccc1)Nc1ccc2c(c1)OCO2 | 5.76 µM | 192 µM | 2.4 µM | – | – | – | – | – | – | – | – | – | –
8.26 µM | 7 µM | S=C(NNc1ccccc1)Nc1ccc2c(c1)OCO2 | 1.74 µM | 271 µM | 1.11 µM | – | – | – | – | – | – | – | – | – | –
0.493 µM | 4.63 µM | S=C(Nc1ccc2c(c1)OCO2)Nc1c2ccccc2nc2ccccc12 | 2.14 µM | 227 µM | 1.71 µM | 37.12% | 25.52% | 17.25% | 37.36% | 8.68% | 201.7 pg/mL | 17.25% | 2.43% | 4.147 pg/mL | 6.14%
